From EP1640447A1, “BIOACTIVE PEPTIDE-PRODUCING STRAINS OF i ENTEROCOCCUS FAECALIS /i , BIOACTIVE PEPTIDES AND APPLICATIONS THEREOF” (Grupo Leche Pascual S.A., priority 2003, dated 2004)
Peptide text beside a SMILES is read from it.

Target: T1, Angiotensin Converting Enzyme (ACE) (Oryctolagus cuniculus, UniProt P12822)
T1 sequence (P12822 34-1310): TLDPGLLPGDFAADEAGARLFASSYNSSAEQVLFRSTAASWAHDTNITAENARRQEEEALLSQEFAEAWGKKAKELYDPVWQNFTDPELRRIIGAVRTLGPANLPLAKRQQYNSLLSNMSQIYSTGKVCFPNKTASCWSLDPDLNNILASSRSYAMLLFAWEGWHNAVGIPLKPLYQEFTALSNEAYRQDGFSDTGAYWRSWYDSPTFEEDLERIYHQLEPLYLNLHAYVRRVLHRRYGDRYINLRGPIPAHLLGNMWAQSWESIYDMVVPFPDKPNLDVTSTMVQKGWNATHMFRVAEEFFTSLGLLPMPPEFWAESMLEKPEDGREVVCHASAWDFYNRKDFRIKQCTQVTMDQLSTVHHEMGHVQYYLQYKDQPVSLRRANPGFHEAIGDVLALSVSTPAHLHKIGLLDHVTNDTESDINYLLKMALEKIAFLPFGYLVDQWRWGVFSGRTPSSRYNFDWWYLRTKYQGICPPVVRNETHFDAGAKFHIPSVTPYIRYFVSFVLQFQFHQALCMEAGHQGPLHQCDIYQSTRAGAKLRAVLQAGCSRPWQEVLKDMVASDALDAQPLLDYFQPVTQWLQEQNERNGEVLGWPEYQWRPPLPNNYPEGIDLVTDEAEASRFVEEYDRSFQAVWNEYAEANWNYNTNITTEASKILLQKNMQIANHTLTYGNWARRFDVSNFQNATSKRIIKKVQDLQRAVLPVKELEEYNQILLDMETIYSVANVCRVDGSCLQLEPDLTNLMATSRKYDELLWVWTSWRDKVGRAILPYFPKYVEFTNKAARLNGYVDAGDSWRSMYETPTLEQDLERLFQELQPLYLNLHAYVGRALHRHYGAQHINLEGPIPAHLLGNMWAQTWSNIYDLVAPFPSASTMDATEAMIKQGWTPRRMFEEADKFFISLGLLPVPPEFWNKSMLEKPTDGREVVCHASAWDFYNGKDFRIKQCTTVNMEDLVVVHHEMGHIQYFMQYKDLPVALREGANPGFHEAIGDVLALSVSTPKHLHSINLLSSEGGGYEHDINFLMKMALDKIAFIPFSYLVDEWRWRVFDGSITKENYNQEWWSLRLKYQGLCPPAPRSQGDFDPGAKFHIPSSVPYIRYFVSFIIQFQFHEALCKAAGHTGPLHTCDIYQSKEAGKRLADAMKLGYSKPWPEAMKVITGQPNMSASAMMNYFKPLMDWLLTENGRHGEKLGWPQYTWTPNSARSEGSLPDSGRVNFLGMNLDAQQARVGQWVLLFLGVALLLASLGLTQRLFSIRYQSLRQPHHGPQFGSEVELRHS
Assay: Measurement of ACE inhibitor activity (ACEI activity), Hip-His-Leu substrate, hippuric acid read at 228 nm
Format: biochemical
Settings: chemically synthesized peptides, Table 4
Method: The measurement of ACE activity was performed according to the method disclosed by Cushman and Cheung (Cushman DW, Cheung HS. 1971. Biochem Pharmacol 20:1637-1648) and subsequently modified by Nakamura (Nakamura Y, Yamamoto N, Sakai K et al. 1995. J Dairy Sci 78:777-783). This method is based on the use of Hippuryl-L-Histidyl-L-Leucine (Hip-His-Leu) as substrate given that the action of the ACE on such substrate produced the release of hippuric acid, easily quantifiable by spectrophotometry by absorbance reading at 228 nm (A228) after extraction thereof with ethyl acetate. If the sample to be tested is added to the reaction tube along with the ACE and the substrate, the ACEI activity of the sample tested can be determined. As is mentioned in Example 1.1, during the selection of bacteria the sample used to measure ACEI activity was the supernatant of the fermented milk, subjected to centrifugation at 20,000 x g for 10 minutes and subsequently diluted to half with distilled water.
The substrate solution was formed by 0.1 M sodium borate, 300 mM sodium chloride, 5 mM Hip-His-Leu (Sigma, St. Louis, MO), pH 8.3 at 37°C. The ACE enzyme solution (Sigma, St. Louis, MO) was adjusted to an activity of 0.1 U/mL.
The different reaction mixtures were incubated for 30 minutes at 37°C and subsequently 150 µL of 1 M hydrochloric acid were added in order to stop the reaction and subsequently 1,000 µL, of ethyl acetate in order to extract the hippuric acid. The resulting mixtures were vigorously stirred for 20 seconds and centrifuged at 1,500 x g for 10 minutes in order to separate and collect from each tube the upper phase (ethyl acetate). 750 µL of each upper phase were pipetted into individual tubes, which were introduced in a bath of boiling water under a fume extraction hood until the solvent evaporated. Once the ethyl acetate was eliminated 800 µL of distilled water were added to each tube to dissolve the dry residue smoothly and without stirring. Finally the content of each tube was transferred to quartz cuvettes to read their absorbance at 228 nm. The inhibition percentage (% Inhibition) was calculated by applying the following formula: %Inhibition = ((A)−(B))/((C)−(D)) [formula] wherein (A), (B), (C) and (D) correspond to the absorbances at 228 nm of the solutions indicated in Table 2.
To perform this fermentation example, E. faecalis CECT 5727, E. faecalis CECT 5728, E. faecalis CECT 5826 or E faecalis CECT 5827 may be used indistinctly. The substrate is skimmed bovine milk powder reconstituted in water at 10% and autoclaved ([…] for 20 minutes). First a starter liquid was made, inoculating the substrate with a culture loop such that the initial population was 10^5-10^7 CFU/mL and incubating for 24 hours. 3% by weight of this culture was used as inoculum for the second fermentation which was maintained for 48 hours. Both fermentations were carried out at 30°C. The fermenting process was stopped by pasteurizing the fermented milk [75°C for 1 minute] and the final pasteurized product was used to measure ACEI activity according to the protocol described in Example 1.2, although in this case the fermented milks were subjected to the pasteurization treatment mentioned before being centrifuged at 20,000 x g for 10 minutes. […] Therefore, the final reaction volume is always 160 µL [100 µL of the substrate solution, 20 µL of the ACE solution and 40 µL of the sample to be tested (supernatant at the corresponding dilution with distilled water)].

| SMILES | IC50 |
| --- | --- |
| CC[C@H](C)[C@H](NC(=O)[C@@H](NC(=O)[C@@H]1CCCN1C(=O)[C@H](Cc1ccccc1)NC(=O)[C@@H]1CCCN1C(=O)CNC(=O)[C@H](CCCNC(=N)N)NC(=O)[C@@H](NC(=O)[C@@H]1CCCN1C(=O)CNC(=O)[C@H](CC(C)C)NC(=O)[C@@H](N)C(C)C)C(C)C)[C@@H](C)CC)C(=O)N[C@H](C(=O)O)C(C)C [SEQ. ID. NO: 7, VLGPVRGPFPIIV] (H-VLGPVRGPFPIIV-OH) | > 700 µM |
| CC(C)[C@H](N)C(=O)N[C@H](C(=O)N[C@H](C(=O)N1CCC[C@H]1C(=O)N1CCC[C@H]1C(=O)N[C@@H](Cc1ccccc1)C(=O)O)C(C)C)C(C)C [SEQ. ID. NO: 5, VVVPPF] (H-VVVPPF-OH) | > 700 µM |
| CC(C)C[C@H](NC(=O)[C@@H]1CCCN1C(=O)[C@H](CC(C)C)NC(=O)[C@@H]1CCCN1C(=O)[C@H](CC(C)C)NC(=O)[C@H](Cc1c[nH]cn1)NC(=O)[C@@H](N)CC(C)C)C(=O)O [SEQ. ID. NO: 3, LHLPLPL] (H-LHLPLPL-OH) | 433 µM |
| CC(C)C[C@H](NC(=O)[C@@H](N)C(C)C)C(=O)NCC(=O)N1CCC[C@H]1C(=O)N[C@H](C(=O)N[C@@H](CCCNC(=N)N)C(=O)NCC(=O)N1CCC[C@H]1C(=O)N[C@@H](Cc1ccccc1)C(=O)N1CCC[C@H]1C(=O)O)C(C)C [SEQ. ID. NO: 2, VLGPVRGPFP] (H-VLGPVRGPFP-OH) | 137 µM |
| CC[C@H](C)[C@H](NC(=O)[C@@H]1CCCN1C(=O)CNC(=O)[C@@H]1CCCN1C(=O)[C@H](Cc1ccccc1)NC(=O)[C@@H]1CCCN1C(=O)[C@H](Cc1ccc(O)cc1)NC(=O)[C@@H](NC(=O)[C@@H](N)CC(C)C)C(C)C)C(=O)N1CCC[C@H]1C(=O)N[C@@H](CC(N)=O)C(=O)N[C@@H](CO)C(=O)N[C@@H](CC(C)C)C(=O)N1CCC[C@H]1C(=O)N[C@@H](CCC(N)=O)C(=O)N[C@@H](CC(N)=O)C(=O)N[C@H](C(=O)N1CCC[C@H]1C(=O)N1CCC[C@H]1C(=O)O)[C@@H](C)CC [SEQ. ID. NO: 8, LVYPFPGPIPNSLPQNIPP] (H-LVYPFPGPIPNSLPQNIPP-OH) | 5.3 µM |
| CC(C)C[C@H](NC(=O)[C@@H]1CCCN1C(=O)[C@H](CC(C)C)NC(=O)[C@H](Cc1cnc[nH]1)NC(=O)[C@@H](N)CC(C)C)C(=O)N1CCC[C@H]1C(=O)O [SEQ. ID. NO: 1, LHLPLP] (H-LHLPLP-OH) | 5.4 µM |
| CC[C@H](C)[C@H](NC(=O)[C@@H](NC(=O)[C@@H]1CCCN1C(=O)[C@H](Cc1ccccc1)NC(=O)[C@@H]1CCCN1C(=O)CNC(=O)[C@H](CCCNC(=N)N)NC(=O)[C@@H](N)C(C)C)[C@@H](C)CC)C(=O)N[C@H](C(=O)O)C(C)C [SEQ. ID. NO: 4, VRGPFPIIV] (H-VRGPFPIIV-OH) | 630 µM |
| CC(C)C[C@H](N)C(=O)N[C@H](C(=O)N[C@@H](CCC(N)=O)C(=O)N[C@H](C(=O)N1CCC[C@H]1C(=O)N[C@H](C(=O)N[C@H](C(=O)N[C@H](C(=O)N1CCC[C@H]1C(=O)N1CCC[C@H]1C(=O)N[C@@H](Cc1ccccc1)C(=O)O)C(C)C)C(C)C)C(C)C)[C@@H](C)O)[C@@H](C)O [SEQ. ID. NO: 6, LTQTPVVVPPF] (H-LTQTPVVVPPF-OH) | > 700 µM |
